Test results: patent EP4273142A1 (Université de Bretagne Occidentale, priority 2022, dated 2023)
“Also recorded” adds a separate entry of the source. Like-named read-outs stand apart in the source and are kept apart here. Marks after values point to notes of the source that are not given here.

What was measured:
[1] = Ligand protonation equilibria by potentiometric titration; format: physicochemical; conditions: 1.0 m kcl
[2] = Pd(II) complexation equilibria by UV spectrophotometry and potentiometry; conditions: for log KML: stability constant of the Pd(II) complex, 25°C in 1.0 M KCl
[3] = Acid-mediated dissociation (cold inertness) followed by 1H NMR; format: physicochemical; conditions: Pd(II) complex, 5 M DCl (HCl 5M), 90°C, up to five months, 0.05M
[4] = cited from earlier work
[5] = EDTA challenge (transchelation) of 109Pd-labelled complexes, radio-HPLC; conditions: pbs, 1000 eq edta, pH 7
[6] = pbs, 1000 eq edta, 24 h, pH 7
[7] = Table 5, stepwise protonation constant in log units, read-out: H2L + H^+ ⇄H3L
[8] = Table 5, stepwise protonation constant in log units, read-out: H3L + H^+ ⇄H4L
[9] = Table 5, stepwise protonation constant in log units, read-out: HL + H^+ ⇄H2L
[10] = Table 5, stepwise protonation constant in log units, read-out: L + H^+ ⇄HL
[11] = Table 6, overall constant in log units, read-out: L + H^+ ⇄HL
[12] = Table 5, complexation constant in log units, […], 1.0 M (K,H)Cl
[13] = Table 6, overall formation constant in log units, […], 1.0 M (K,H)Cl

pKa [1, 7] | pKa [1, 8] | pKa [1, 9] | pKa [1, 10] | pKa [1, 11] | log KML [2] | Compound | Pd^2+ + L ⇄PdL [2, 12] | Pd^2+ + L ⇄PdL [2, 13] | Dissociation [3] | further results
3.05 | 2.28 | 10.1 | 11.1 | 11.1 | – | O=C(O)c1cccc(CN2CCCNCCNCCCNCC2)n1 [TE1PA, 6-((1,4,8,11-tetraazacyclotetradecan-1-yl)methyl)picolinate] | – | – | – | pKa ([1]; Table 5, stepwise protonation constant in log units, read-out: H4L + H^+ ⇄H5L): 1.69; PdHL + H^+ ⇄PdH2L ([2]; Table 5, stepwise protonation constant of the Pd(II) complex in log units, […], 1.0 M KCl): 1.8(1)
2.65 | 2.83 | 10.4 | 11.5 | 11.5 | 42.6 | c1ccc(CN2CCCNCCNCCCNCC2)nc1 [TE1Py] | 42.6(1) | 42.6(1) | – | Pd^2+ + L + H^+ ⇄PdHL ([2]; Table 6, overall formation constant in log units, determined by UV spectrophotometry, pH 0-1.5, […], 1.0 M (K,H)Cl): 44.2(1) ^b
– | – | – | – | – | – | C1CNCCNCCCNCCNC1.[Cl-].[Cl-].[Pd+2] [[Pd(cyclam)]^2+, Palladium(II) 1,4,8,11-tetraazacyclotetradecane dichloride, reference compound] | – | – | neither [Pd(cyclam)]^2+ nor [Pd(TE1PA)]^2+ present any significant dissociation; also recorded: HCl 5M, 90°C: Inert | log KML ([4]; Pd(II) cyclam complex, 25°C in 0.1 M NaClO4, Harrington et al. 2005, value estimated): log KML = 56,9; degraded at 24 h [5]: 13%
– | – | – | – | – | – | OCCN1CCCN(CCO)CCN(CCO)CCCN(CCO)CC1 [tetra(2-hydroxyethyl) cyclam] | – | – | – | log KML ([4]; Pd(II) complex, Hay et al. 1987): 18.32
– | – | – | – | – | log KML = 38.4 | Palladium (II) 6-methylpicolinate-1,4,8,11-tetraazacyclotetradecane tetrachloropalladate [[Pd(TE1PA)]^2+] | – | – | neither [Pd(cyclam)]^2+ nor [Pd(TE1PA)]^2+ present any significant dissociation; also recorded: HCl, 5M, 90°C: Inert | demetallation [6]: 9% demetallation

Compound | pKa [1, 7] | pKa [1, 8] | pKa [1, 9] | pKa [1, 10] | pKa [1, 11] | log KML [2] | Pd^2+ + L ⇄PdL [2, 12] | Pd^2+ + L ⇄PdL [2, 13] | Dissociation [3] | further results
c1ccc(CN2CCCNCCNCCCNCC2)cc1 [TE1Bn, reference compound] | 2.21 | 2.89 | 9.39 | 11.3 | 11.3 | > 43 | > 43 | >43 | – | –
